Assay results taken from PubChem BioAssay AID1996.
≈ marks a conversion by molar mass, not a printed value.

Conditions: buffer; pH 7.4; 200.0 µM

Structure (SMILES)	solubility kinetic [µg/mL]
CCNc1ccc(S(=O)(=O)NCCN(C)C)cc1[N+](=O)[O-]	42.4 (≈ 134 µM)
N#Cc1cc2c([nH]c1=O)CCCC2	> 26.1
O=C(Nc1nccs1)C1CC(=O)N(Cc2ccco2)C1 (centres undefined)	40.7 (≈ 140 µM)
N#Cc1cc(Nc2c(N)nc[nH]c2=O)c([N+](=O)[O-])cc1C#N	> 44.6
Cn1c(O)c(C=Nc2ccccc2-c2ccccc2)c(=O)n(C)c1=O	< 0.2
O=C(Nc1ccc2c(c1)CCC2)c1ccc(Br)s1	< 0.7
O=C(Nc1cccc2ncccc12)c1ccccc1F	39.7 (≈ 149 µM)
NC(=O)c1ccc(NC(=O)COC(=O)CC2CC3CCC2C3)cc1 (centres undefined)	13 (≈ 39.3 µM)
COc1ccc(NS(=O)(=O)c2ccc(-c3ccccn3)s2)cc1	0.8 (≈ 2.31 µM)
CC(=O)Oc1ccccc1-c1nc(/C=C/c2ccccc2)no1	< 0.3
Cc1cccc(/C=N/NC(=O)c2cc(C)nc3ccccc23)n1	> 45.7
CCOc1ccc(N/C(N)=N/c2nc(C)c(C)c(=O)[nH]2)cc1	2.3 (≈ 7.63 µM)
Cc1cc(C)cc(NC(=O)Nc2ccc3ccccc3n2)c1	< 0.2
Nc1cc(Oc2ccc(Cl)cc2Cl)nc(N)n1	39.5 (≈ 146 µM)
O=C1c2ccccc2C(=O)N1C(CO)C(O)c1ccc([N+](=O)[O-])cc1 (centres undefined)	> 51.3
O=[N+]([O-])c1ccc(Oc2ncccn2)cc1	28.4 (≈ 131 µM)
Cc1cc(C)c(OCC(=O)Nc2cc(C(=O)O)cc(C(=O)O)c2)cc1C	> 53.6
O=C(NCCO)N1c2ccccc2Sc2ccccc21	> 43
COc1ccc(S(=O)(=O)NCc2cccnc2)cc1OC	> 46.3
Cc1ccc(C(C)C)cc1OCC(=O)NC1CCCCCCC1	< 0.7
C/[N+]([O-])=C/c1c(OCc2ccccc2)ccc2ccccc12	> 43.7
O=C(/C=C/c1cccc(Cl)c1)NCCCN1CCOCC1	> 46.3
Clc1ccccc1-c1csc(Nc2cccnc2)n1	0.3 (≈ 1.04 µM)
CCC(=O)Nc1ccc(NCc2cccs2)cc1	> 39.1

Structure (SMILES)	solubility kinetic [µg/mL]
Cc1cc(N2CCN(C)CC2)nc(-c2ccccc2O)n1	> 42.7
Nc1nccc(-c2cc(-c3ccc(Cl)cc3Cl)no2)n1	0.7 (≈ 2.28 µM)
COc1cccc(CNC(=O)CCN2C(=S)NC(C)(C)CC2C)c1 (centres undefined)	> 52.4
COc1ccc(NC(=O)CCn2ccnc2)c(OC)c1	41.1 (≈ 149 µM)
O=C(NC(=S)N1CCCC1)c1ccccc1	> 35.1
Cc1cc(=O)[nH]c(SCC(=O)NC2CCCCCCC2)n1	> 46.4
CC(C)(CNCc1ccccc1)NS(=O)(=O)c1ccccc1	> 47.8
Cn1cccc1C1CCCN1CC(=O)Nc1ccc(F)c(F)c1F (centres undefined)	> 50.6
O=C(CN1C(=O)COc2ccccc21)NC1CCCC1	32.9 (≈ 120 µM)
N#CCc1nc2ccc(S(=O)(=O)N3CCOCC3)cc2s1	37.2 (≈ 115 µM)
CC(=O)Nc1cccc(Oc2ccc3c(c2)C(=O)NC3=O)c1	> 44.4
COc1ccc(CNC(=O)C2CC(C)=CCC2C(=O)O)cc1 (centres undefined)	> 45.5
CN(C(=O)CSC(=O)c1ccccc1)c1ccccc1	40.6 (≈ 142 µM)
O=C(NCCc1ccc(Cl)cc1)C1CCCO1 (centres undefined)	> 38.1
O=C(c1ccccc1)C1CCN(C(=O)c2ccc(Cl)cc2)CC1	> 49.2
O=C(/C=C/c1ccccc1Cl)NC1CCCCC1	< 0.6
O=C(NCCCN1CCCC1=O)c1cc2c(s1)CCCCC2	> 48.1
COCCCn1c(=O)c2sccc2n(Cc2cccc(C)c2)c1=O	15.1 (≈ 43.8 µM)
O=C(NC(=S)Nc1ccc([N+](=O)[O-])cc1O)C1CCCCC1	3.5 (≈ 10.8 µM)
CC(=O)NCC1COc2ccccc2O1 (centres undefined)	> 31.1
O=C(COC(=O)c1cc(Cl)nc(Cl)c1)NCCc1ccc(F)cc1	> 55.7
CCCNC(=O)c1ccc(COc2cccc3ccccc23)o1	15.8 (≈ 51.1 µM)
CC(=O)N1CCN(c2ccccc2NC(=O)COc2ccccc2C)CC1	49.7 (≈ 135 µM)
Cc1ccc(CSCc2ccc(C(=O)NC3CC3)o2)cc1	> 45.2

Structure (SMILES)	solubility kinetic [µg/mL]
Cc1cc2cc(C#N)c(SCC(=O)Nc3nonc3C)nc2cc1C	0.3 (≈ 0.849 µM)
Cc1ccc(C)c(C(C)NC(=O)C2CC=CCC2C(=O)O)c1 (centres undefined)	> 45.2
N#CCCN(C(=S)NC(=O)C1CCCCC1)c1ccccc1F	> 50
Brc1cc2c(cc1-c1nc3ccccc3s1)OCO2	< 0.7
O=c1[nH]cccc1-c1nc2ccccc2n1Cc1ccc(Cl)cc1	> 50.4
COc1ccccc1NC(=O)COc1ccc(C(=O)NCC2CCCO2)cc1OC (centres undefined)	51.5 (≈ 124 µM)
COc1ccc(-c2c(C#N)c(N)nc3c2CCC3)cc1	0.3 (≈ 1.13 µM)
CCCSc1nc2sc3c(c2c(=O)[nH]1)CC(C)(CC)OC3 (centres undefined)	1.5 (≈ 4.62 µM)
O=C(COc1cccnc1[N+](=O)[O-])Nc1c(Cl)cccc1Cl	23.2 (≈ 67.8 µM)
COC(=O)c1ccsc1NC(=O)c1cccc(OC)c1	1.4 (≈ 4.81 µM)
COc1cc(NC(=O)CCN2CCN(C)CC2)cc(OC)c1	> 46.1
CC(=O)N1CCN(C(=O)c2ccco2)CC1	> 33.3
COC(CNc1ccc([N+](=O)[O-])c(NCC(OC)OC)c1C#N)OC	19 (≈ 53.6 µM)
O=C(Cn1c(=O)oc2ccc(Cl)cc21)Nc1ccon1	6.2 (≈ 21.1 µM)
CC(=O)c1cccc(S(=O)(=O)N2CCC(C(=O)O)CC2)c1	> 46.7
CS(=O)(=O)N1CCC(C(=O)Nc2cccc(F)c2)CC1	> 45.1
O=C(/C=C/c1ccco1)NCC1COc2ccccc2O1 (centres undefined)	> 42.8
CCOC(=O)c1c(C)[nH]c(C)c1C(=O)COC(=O)CSc1ccc(C)cc1	> 58.4
Cc1cc(=O)[nH]c(N2CCN(C(=O)c3ccco3)CC2)n1	> 43.2
CSc1ncccc1C(=O)OCC(=O)Nc1ccc(N2CCOCC2)cc1	10.6 (≈ 27.4 µM)
CC(=O)c1ccc(N/C=C/C(=O)c2ccc(Br)cc2)cc1	0.8 (≈ 2.32 µM)
COc1cccc(CNC(=O)CCSCc2ccccc2F)c1	41.8 (≈ 125 µM)
Cc1cccc(NC(=O)C2CC2c2ccccc2)c1C (centres undefined)	3.8 (≈ 14.3 µM)
COCCNC(=O)Cn1cc(/C=C(\C#N)C(=O)NC2CC2)c2ccccc21	> 55

Structure (SMILES)	solubility kinetic [µg/mL]
CC1(C)CC(=O)C(CC(=O)NC2CCCc3ccccc32)C(=O)C1 (centres undefined)	> 49.1
Cc1cc(NC(=O)CSc2ncc(C(F)(F)F)cc2Cl)no1	1.2 (≈ 3.41 µM)
COc1ccc(/C=C\c2nc(O)c([N+](=O)[O-])c(=O)[nH]2)cc1O	> 45.8
COc1ccc(S(=O)(=O)N2CCOCC2)cc1NC(=O)COC(=O)CC1CC2CCC1C2 (centres undefined)	11.3 (≈ 24.2 µM)
Cc1ccc(OCCNC(=O)c2ccc3ccccc3n2)cc1	5.4 (≈ 17.6 µM)
COc1cc(-c2cc(C(=O)Nc3ccc(C)c(S(=O)(=O)N4CCOCC4)c3)c3ccccc3n2)cc(OC)c1OC	6.7 (≈ 11.6 µM)
C[N+]1(C)CCc2cc3c(cc2[C@H]1[C@@H]1OC(=O)c2c1ccc1c2OCO1)OCO3.[I-]	> 76.4
CC1CCCC(C)N1C(=O)COC(=O)/C=C/c1ccco1 (centres undefined)	10 (≈ 34.3 µM)
CCC(=O)Nc1cccc(C(=O)c2ccc(C)c(C)c2)c1	28 (≈ 99.5 µM)
Cc1ccc(OCC(=O)NCCNC(=O)c2ccccn2)cc1	46.9 (≈ 150 µM)
CCc1cccc(CC)c1NC(=S)Nc1cccc(Cl)c1Cl	1.4 (≈ 3.96 µM)
COC(=O)CNC(=O)C1CC(=O)N(CCc2ccc(F)cc2)C1 (centres undefined)	> 48.4
Cn1cc(S(=O)(=O)NC2CCCC2)c(=O)n(C)c1=O	> 43.1
COc1ccccc1NC(=O)c1ccccc1C(=O)N(C)Cc1ccccc1	1.3 (≈ 3.47 µM)
CC(=O)N1CCN(c2ccccc2NC(=O)c2cccs2)CC1	> 49.4
CC(C)(C)NCC(O)c1cc(Cl)c(N)c(Cl)c1.Cl (centres undefined)	46.5
CC(=O)c1c[nH]c(C(=O)NC2CCCCCC2)c1	34.9 (≈ 141 µM)
N#CC1=C(N)Oc2cc(N)ccc2C1c1ccc(Cl)cc1 (centres undefined)	3.4 (≈ 11.4 µM)
Cc1cc(C(=O)OCC(=O)N2CCCCCC2)ccc1[N+](=O)[O-]	> 48.1
CN1CCCN=C1COC(=O)C(O)(c1ccccc1)C1CCCCC1.Cl (centres undefined)	> 57.1
Cc1cccc(C(=O)OCC(=O)N2CCN(C(=O)c3ccco3)CC2)c1O	38.8 (≈ 104 µM)
COc1ccc(C(=O)Nc2cccc3c2CCCC3)cc1	< 0.6
CSc1ccccc1C(=O)Nc1cccc([N+](=O)[O-])c1C	7.5 (≈ 24.8 µM)
O=C(NC1CCN(C(=O)Nc2cccc(Cl)c2)CC1)c1ccccc1	0.4 (≈ 1.12 µM)

Structure (SMILES)	solubility kinetic [µg/mL]
O=C(CCc1c[nH]c2ccccc12)NCCc1ccccc1	28.5 (≈ 97.5 µM)
CN1CCC(NC(=S)Nc2cccc([N+](=O)[O-])c2)CC1	> 44.2
CC(C)(C)c1nc(N)nc(=O)[nH]1	23.9 (≈ 142 µM)
O=C(CN1CCOCC1)N1c2ccccc2Sc2ccccc21	> 49
CC(NCc1ccc2c(c1)OCO2)c1ccccc1.Cl (centres undefined)	41
Cc1ccc(C(=O)NCC(=O)NC2CCCC2)cc1	30.4 (≈ 117 µM)
CCCc1nnc(SCC(=O)Nc2nccs2)o1	> 42.7
Cc1cc(C)c2c(-c3ccc(F)cc3)c(C#N)c(=O)n(C)c2n1	0.6 (≈ 1.95 µM)
COc1ccccc1CCC(=O)Nc1ncc(C)s1	2.5 (≈ 9.05 µM)
CCCCCCC(=O)Nc1ccc(Br)cn1	1.6 (≈ 5.61 µM)
O=C(CNC(=O)c1ccc(Br)cc1)NC1CC1	> 44.6
Cc1cc(=O)oc2cc(OCCSCCN3CCCC3)ccc12	> 50
O=C(c1cc2cc(C(F)(F)F)ccc2s1)N1CCOCC1	> 47.3
COc1ccccc1C1NC(=O)NC(C)=C1C(=O)OC1CCC(C)CC1 (centres undefined)	< 0.4
CC(=O)Nc1nc(-c2ccccc2)cc(-c2ccco2)c1C#N	2 (≈ 6.59 µM)
NC(=O)c1ccsc1NC(=O)CCc1ccccc1	37.4 (≈ 136 µM)
COc1ccc(NC(=O)Nc2ccccc2SC)cc1OC	0.6 (≈ 1.88 µM)
CC1CCCCC12NC(=O)N(CC(=O)N1CCc3ccccc31)C2=O (centres undefined)	3.7 (≈ 10.8 µM)
Cc1csc(C(=O)O)c1NC(=O)c1c(Cl)cccc1Cl	40.7 (≈ 123 µM)
CCc1ccc2nc(/N=C(\N)NC(=O)c3ccccc3)nc(C)c2c1	< 0.1
O=C(O)c1cccc(NC2=C(N3CCOCC3)C(=O)c3ccccc3C2=O)c1	> 56.8
CC1CN2C(c3ccc([N+](=O)[O-])cc3)=CSC2=N1 (centres undefined)	26.3 (≈ 101 µM)
CC(=O)NC1(C(F)(F)F)NC(=O)N(CCc2ccccc2)C1=O (centres undefined)	> 49.4
